From PubChem BioAssay AID248 (DTP/NCI, 2004)
Where “and” joins values, the source holds several entries; their conditions need not be identical. Identical values can stand only once. Inconclusive results and toxic doses are left out. No stated cut-off is given here; in the data, active means T/C of 150% or more; inactive means T/C below 125%.

Test system: L1210 leukemia ip in BDF1 mice, survival T/C
Test: NCI In Vivo Anticancer Drug Screen. Data for tumor model L1210 Leukemia (intraperitoneal) in B6D2F1 (BDF1) mice
Settings: endpoint: mean survival time, higher = longer survival
Method in brief: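 Read-out is survival time, reported as the treated-group measurement over the vehicle-control measurement.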

Measured: T/C

Nc1ccc(OC(=O)Oc2ccc(N)cc2)cc1
inactive: dose: 5.0 mg/kg/injection, schedule: Q01DX Z (iv), vehicle: saline 101 % of control | dose: 6.25 mg/kg/injection, schedule: Q#A X Z (oral), vehicle: saline 106 % of control | dose: 10.0 mg/kg/injection, schedule: Q01DX Z (iv), vehicle: saline 101 % of control | dose: 12.5 mg/kg/injection, schedule: Q01DX Z (oral), vehicle: saline 104 % of control | dose: 12.5 mg/kg/injection, schedule: Q#A X Z (oral), vehicle: saline 108 % of control | dose: 16.0 mg/kg/injection, schedule: Q07DX003 (oral), vehicle: saline 103 % of control | dose: 20.0 mg/kg/injection, schedule: Q01DX Z (iv), vehicle: saline 100 % of control | dose: 25.0 mg/kg/injection, schedule: Q01DX Z (oral), vehicle: saline 104 % of control | dose: 25.0 mg/kg/injection, schedule: Q#A X Z (oral), vehicle: saline 112 % of control | dose: 31.0 mg/kg/injection, schedule: Q07DX003 (oral), vehicle: saline 98 % of control | dose: 37.0 mg/kg/injection, schedule: Q01DX Z (ip), vehicle: carboxymethylcellulose (CMC) 100 % of control | dose: 37.5 mg/kg/injection, schedule: Q01DX009 (ip), vehicle: other 101 % of control | dose: 37.5 mg/kg/injection, schedule: Q01DX017 (ip), vehicle: other 101 % of control | dose: 37.5 mg/kg/injection, schedule: Q#A X018 (ip), vehicle: other 97 % of control | dose: 38.0 mg/kg/injection, schedule: Q01DX Z (ip), vehicle: carboxymethylcellulose (CMC) 98 % of control | dose: 40.0 mg/kg/injection, schedule: Q01DX Z (iv), vehicle: saline 100 % of control | dose: 40.0 mg/kg/injection, schedule: Q#A X Z (ip), vehicle: saline 111 % of control | dose: 50.0 mg/kg/injection, schedule: Q01DX005 (ip), vehicle: saline 101 % of control | dose: 50.0 mg/kg/injection, schedule: Q01DX006 (iv), vehicle: saline 110 % of control | dose: 50.0 mg/kg/injection, schedule: Q01DX009 (ip), vehicle: saline 104 % of control | dose: 50.0 mg/kg/injection, schedule: Q01DX015 (ip), vehicle: other 115 % of control | dose: 50.0 mg/kg/injection, schedule: Q01DX Z (im), vehicle: saline 104 % of control | dose: 50.0 mg/kg/injection, schedule: Q01DX Z (oral), vehicle: saline 112 % of control | dose: 50.0 mg/kg/injection, schedule: Q01DX Z (sc), vehicle: saline 112 % of control | dose: 50.0 mg/kg/injection, schedule: Q## X003 (ip), vehicle: saline 102 % of control | dose: 50.0 mg/kg/injection, schedule: Q## X024 (ip), vehicle: saline 101 % of control | dose: 53.0 mg/kg/injection, schedule: Q01DX Z (ip), vehicle: carboxymethylcellulose (CMC) 89 % of control and 113 % of control | dose: 53.0 mg/kg/injection, schedule: Q01DX Z (ip), vehicle: saline 102 % of control | dose: 63.0 mg/kg/injection, schedule: Q07DX003 (oral), vehicle: saline 106 % of control | dose: 74.0 mg/kg/injection, schedule: Q01DX Z (ip), vehicle: carboxymethylcellulose (CMC) 113 % of control | dose: 75.0 mg/kg/injection, schedule: Q01DX009 (ip), vehicle: other 104 % of control | dose: 75.0 mg/kg/injection, schedule: Q01DX017 (ip), vehicle: other 104 % of control | dose: 75.0 mg/kg/injection, schedule: Q01DX Z (ip), vehicle: carboxymethylcellulose (CMC) 102 % of control | dose: 75.0 mg/kg/injection, schedule: Q#A X018 (ip), vehicle: other 118 % of control | dose: 80.0 mg/kg/injection, schedule: Q01DX012 (oral), vehicle: saline 94 % of control | dose: 80.0 mg/kg/injection, schedule: Q01DX Z (ip), vehicle: carboxymethylcellulose (CMC) 93 % of control | dose: 80.0 mg/kg/injection, schedule: Q01DX Z (ip), vehicle: saline 113 % of control | dose: 100.0 mg/kg/injection, schedule: Q01DX001 (ip), vehicle: saline 98 % of control | dose: 100.0 mg/kg/injection, schedule: Q01DX005 (ip), vehicle: saline 92 % of control | dose: 100.0 mg/kg/injection, schedule: Q01DX005 (oral), vehicle: saline 116 % of control | dose: 100.0 mg/kg/injection, schedule: Q01DX006 (iv), vehicle: saline 114 % of control | dose: 100.0 mg/kg/injection, schedule: Q01DX009 (oral), vehicle: saline 116 % of control | dose: 100.0 mg/kg/injection, schedule: Q01DX015 (ip), vehicle: clinical formulation 118 % of control | dose: 100.0 mg/kg/injection, schedule: Q## X003 (ip), vehicle: saline 106 % of control | dose: 100.0 mg/kg/injection, schedule: Q## X003 (oral), vehicle: saline 101 % of control | dose: 100.0 mg/kg/injection, schedule: Q## X008 (ip), vehicle: saline 101 % of control | dose: 120.0 mg/kg/injection, schedule: Q01DX012 (oral), vehicle: saline 105 % of control | dose: 120.0 mg/kg/injection, schedule: Q01DX Z (ip), vehicle: carboxymethylcellulose (CMC) 97 % of control | dose: 120.0 mg/kg/injection, schedule: Q01DX Z (ip), vehicle: saline 108 % of control and 117 % of control | dose: 125.0 mg/kg/injection, schedule: Q07DX003 (oral), vehicle: saline 106 % of control | dose: 135.0 mg/kg/injection, schedule: Q#A X Z (ip), vehicle: saline 102 % of control | dose: 149.0 mg/kg/injection, schedule: Q01DX Z (ip), vehicle: carboxymethylcellulose (CMC) 105 % of control | dose: 150.0 mg/kg/injection, schedule: Q01DX001 (ip), vehicle: other 109 % of control | dose: 150.0 mg/kg/injection, schedule: Q01DX Z (ip), vehicle: carboxymethylcellulose (CMC) 113 % of control | dose: 180.0 mg/kg/injection, schedule: Q01DX Z (ip), vehicle: carboxymethylcellulose (CMC) 98 % of control | dose: 180.0 mg/kg/injection, schedule: Q01DX Z (ip), vehicle: saline 105 % of control | dose: 180.0 mg/kg/injection, schedule: Q01DX Z (oral), vehicle: saline 110 % of control | dose: 200.0 mg/kg/injection, schedule: Q01DX001 (ip), vehicle: saline 110 % of control | dose: 200.0 mg/kg/injection, schedule: Q01DX005 (oral), vehicle: saline 110 % of control | dose: 200.0 mg/kg/injection, schedule: Q01DX008 (oral), vehicle: saline 93 % of control | dose: 200.0 mg/kg/injection, schedule: Q01DX015 (ip), vehicle: clinical formulation 108 % of control | dose: 200.0 mg/kg/injection, schedule: Q01DX015 (ip), vehicle: other 100 % of control | dose: 200.0 mg/kg/injection, schedule: Q## X003 (ip), vehicle: saline 98 % of control | dose: 200.0 mg/kg/injection, schedule: Q## X003 (oral), vehicle: saline 106 % of control | dose: 200.0 mg/kg/injection, schedule: Q## X008 (ip), vehicle: saline 104 % of control | dose: 200.0 mg/kg/injection, schedule: Q## X024 (ip), vehicle: saline 97 % of control | dose: 240.0 mg/kg/injection, schedule: Q03DX Z (ip), vehicle: saline 110 % of control | dose: 250.0 mg/kg/injection, schedule: Q01DX001 (oral), vehicle: saline 115 % of control | dose: 250.0 mg/kg/injection, schedule: Q03DX006 (oral), vehicle: saline 108 % of control | dose: 250.0 mg/kg/injection, schedule: Q07DX003 (oral), vehicle: saline 113 % of control | dose: 267.0 mg/kg/injection, schedule: Q## X024 (ip), vehicle: saline 106 % of control | dose: 267.0 mg/kg/injection, schedule: Q## X024 (oral), vehicle: saline 110 % of control | dose: 270.0 mg/kg/injection, schedule: Q01DX Z (ip), vehicle: carboxymethylcellulose (CMC) 101 % of control | dose: 270.0 mg/kg/injection, schedule: Q01DX Z (ip), vehicle: other 113 % of control | dose: 270.0 mg/kg/injection, schedule: Q01DX Z (ip), vehicle: saline 91 % of control | dose: 300.0 mg/kg/injection, schedule: Q01DX001 (ip), vehicle: other 103 % of control | dose: 360.0 mg/kg/injection, schedule: Q03DX Z (ip), vehicle: saline 110 % of control | dose: 400.0 mg/kg/injection, schedule: Q01DX001 (ip), vehicle: saline 97 % of control | dose: 400.0 mg/kg/injection, schedule: Q01DX006 (iv), vehicle: saline 118 % of control | dose: 400.0 mg/kg/injection, schedule: Q01DX008 (oral), vehicle: saline 92 % of control | dose: 400.0 mg/kg/injection, schedule: Q## X003 (ip), vehicle: saline 111 % of control | dose: 400.0 mg/kg/injection, schedule: Q## X003 (oral), vehicle: saline 105 % of control | dose: 400.0 mg/kg/injection, schedule: Q## X008 (ip), vehicle: saline 101 % of control | dose: 400.0 mg/kg/injection, schedule: Q## X024 (oral), vehicle: saline 102 % of control and 105 % of control | dose: 405.0 mg/kg/injection, schedule: Q01DX Z (ip), vehicle: other 116 % of control | dose: 500.0 mg/kg/injection, schedule: Q01DX001 (oral), vehicle: saline 110 % of control | dose: 500.0 mg/kg/injection, schedule: Q03DX006 (oral), vehicle: saline 115 % of control | dose: 500.0 mg/kg/injection, schedule: Q07DX003 (oral), vehicle: saline 111 % of control | dose: 540.0 mg/kg/injection, schedule: Q03DX Z (ip), vehicle: saline 115 % of control | dose: 560.0 mg/kg/injection, schedule: Q07DX Z (ip), vehicle: saline 110 % of control | dose: 600.0 mg/kg/injection, schedule: Q## X024 (oral), vehicle: saline 115 % of control | dose: 720.0 mg/kg/injection, schedule: Q01DX Z (oral), vehicle: saline 106 % of control | dose: 800.0 mg/kg/injection, schedule: Q01DX008 (oral), vehicle: saline 116 % of control | dose: 800.0 mg/kg/injection, schedule: Q## X003 (oral), vehicle: saline 102 % of control | dose: 1000.0 mg/kg/injection, schedule: Q01DX001 (oral), vehicle: saline 110 % of control | dose: 1000.0 mg/kg/injection, schedule: Q03DX006 (oral), vehicle: saline 114 % of control | dose: 2000.0 mg/kg/injection, schedule: Q01DX001 (oral), vehicle: saline 92 % of control
